The values below come from patent publication US9475766B2, “Substituted aromatic sulfur compounds and methods of their use” (Cephalon, Inc., priority 2011, dated 2016).

Where a name gives a salt, the structure may show the parent alone.

The subject of data set [1] is SU86 pancreatic cancer cell line (Su.86.86). The data set is described as follows: Cell survival and adhesion assay (luciferase), SU86. In kind it is cell-based. Conditions: 5 hours, SU86 cells overlayed onto human mesothelial cell monolayers, read-out: relative reduction in Luciferase activity, SU86 10 μM. The essentials: (§1)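 Luciferase-expressing tumour cells (10^5) were overlaid on confluent human mesothelial cell monolayers together with compound or DMSO for 5 hours. Non-adherent cells were washed off; adherent, surviving cells were lysed, protein-normalised and quantified by firefly luciferase luminescence.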

Data set [2] concerns BxPC3 pancreatic cell line. The data set is described as follows: Cell survival and adhesion assay (luciferase), BxPC3. The format is cell-based. The conditions noted are these: BXPC-3, 5 hours, BxPC3 cells overlayed onto human mesothelial cell monolayers, read-out: relative reduction in Luciferase activity, BxPC3 10 μM. The essentials: as §1
In data set [3] the test system is A2780 ovarian cancer cell line. The experiment in a line: Cell survival and adhesion assay (luciferase), A2780. In kind it is cell-based. Conditions: 5 hours, A2780 cells overlayed onto human mesothelial cell monolayers, read-out: relative reduction in Luciferase activity, A2780 10 μM. Put shortly:
as §1

Data set [4] deals with HT29 colon cancer cell line. The data set is described as follows: Cell survival and adhesion assay (luciferase), HT29. The format is cell-based. The conditions noted are these: HT-29, 5 hours, HT29 cells overlayed onto human mesothelial cell monolayers, read-out: relative reduction in Luciferase activity, HT29 10 μM. Here is the method: SU86 is a pancreatic cancer cell line. HT29 is a colon cancer cell line. BxPC3 is a pancreatic cell line. A2780 is an ovarian cancer cell line.
BxPc-3 and Su.86.86 pancreatic and HT-29 colon and A2780 ovarian cancer cell lines were purchased from ATCC and cultured in DMEM supplemented with 10% fetal bovine serum, glutamine, penicillin, and streptomycin. All cells were cultured at 37° C. in a humidified incubator in a 5% CO2 atmosphere. The cancer cell lines were transduced with a retrovirus containing pLuc-puro, a constitutive luciferase reporter and selected in […] media. Transient transfection of a full-length human c-FLIP construct in the vector pcDNA3 was performed as previously described. Scaife et al. Cancer Research 2002, 62: 6870-78.
Pancreatic cancer cell cultures (BxPc-3 and Su.86.86) and colon cancer (HT-29) and ovarian cancer (A2780) cells that were stably transfected with a firefly luciferase construct were transiently suspended with trypsin-PBS. 10^5 cells were overlayed onto confluent monolayers of human mesothelial cells in 96-well plates while simultaneously adding various concentrations of compounds of the invention or DMSO for 5 hours. The non-adherent cells were carefully washed away from the wells twice with 100 μl/well of blocking buffer (1% BSA in PBS) and twice again with ice-cold PBS. Adherent and surviving cells were detected by luciferase activity in a luminometer as follows. The cells were lysed in 0.1% TritonX-100, 25 mM Gly-Gly (7.8), MgSO4, 4 mM EGTA, 1 mM DTT. The total protein concentration was normalized with lysis buffer. 50 μl of cell lysate was added per well of a 96-well microtiter plate. 50 μl of luciferin substrate (Promega) was added per well and then the light output determined in a luminometer.

The term melting point denotes the temperature, or range, at which the solid turns liquid. Take `COc1ccc(NC(=O)C(C)(C)c2ccc(S(=O)(=O)/C=C/C#N)cc2)cc1` [Example 23, 2-[4-((E)-2-Cyano-ethenesulfonyl)-phenyl]-N-(4-methoxy-phenyl)-isobutyramide]: the melting point was in the range of 123 to 126 °C. Besides, the inhibition at 10 µM in data set [1] lay in the range of 50 to 85%. Also, in data set [2], the inhibition at 10 µM lay within 50 to 85%. The inhibition at 10 µM in data set [3] was more than 85%.

For the molecule `C/C=C/S(=O)(=O)c1ccc(C(C)(C)C)cc1` [Example 56, 1-tert-Butyl-4-[((E)-prop-1-ene)-1-sulfonyl]-benzene], the melting point is 80 °C. The inhibition at 10 µM in data set [1] is less than 10%. For the same molecule, in data set [4], the inhibition at 10 µM was less than 10%. For the same molecule, the inhibition at 10 µM in data set [2] was less than 10%. For the same molecule, the inhibition at 10 µM in data set [3] was less than 10%.

The molecule `CC(C)(C(=O)NC1CCCCC1)c1ccc(S(=O)(=O)/C=C/C#N)cc1` [Example 12, 2-[4-((E)-2-Cyano-ethenesulfonyl)-phenyl]-N-cyclohexyl-isobutyramide] showed a melting point of 191 to 193 °C. The inhibition at 10 µM in data set [1] was 50 to 85%. In addition, in data set [4], the inhibition at 10 µM was less than 10%. The inhibition at 10 µM in data set [2] was in the range of 50 to 85%. The inhibition at 10 µM in data set [3] fell in the range of 50 to 85%.

With `CC(C)(C)c1ccc(S(=O)(=O)/C=C/c2ccccc2)cc1` [Example 57, 1-tert-Butyl-4-((E)-2-phenyl-ethenesulfonyl)-benzene], the melting point worked out at 95 °C. Moreover, the inhibition at 10 µM in data set [1] was less than 10%. Also, the inhibition at 10 µM in data set [4] was less than 10%. Also, the inhibition at 10 µM in data set [2] is less than 10%. The inhibition at 10 µM in data set [3] is less than 10%.

In turn, `CC(C)(C(=O)NCc1ccc(-n2cccn2)cc1)c1ccc(S(=O)(=O)/C=C/C#N)cc1` (as salt: trifluoroacetic acid salt) [Example 21, 2-[4-((E)-2-Cyano-ethenesulfonyl)-phenyl]-N-(4-pyrazol-1-yl-benzyl)-isobutyramide] returned a melting point of 47 to 53 °C.

With `CC(C)(C(=O)NCc1ccccc1)c1ccc(S(=O)(=O)/C=C/C#N)cc1` [Example 6, N-Benzyl-2-[4-((E)-2-cyano-ethenesulfonyl)-phenyl]-isobutyramide], the inhibition at 10 µM is 50 to 85% in data set [1], less than 10% in data set [4], 50 to 85% in data set [2] and more than 85% in data set [3].

In the case of `CCOC(=O)/C=C/S(=O)(=O)c1ccc(C(C)(C)C)cc1` [Example 59, (E)-3-(4-tert-Butyl-benzenesulfonyl)-acrylic acid ethyl ester], the melting point lay within 88 to 91 °C. Moreover, the inhibition at 10 µM in data set [1] is 10 to 50%. Further, in data set [4], the inhibition at 10 µM is 10 to 50%. The inhibition at 10 µM in data set [2] was in the range of 50 to 85%. In data set [3], the inhibition at 10 µM was in the range of 50 to 85%.

On to `CC(C)(C(=O)N1CCc2ccccc2C1)c1ccc(S(=O)(=O)/C=C/C#N)cc1` [Example 20, (E)-3-{4-[2-(3,4-Dihydro-1H-isoquinolin-2-yl)-1,1-dimethyl-2-oxo-ethyl]-benzenesulfonyl}-acrylonitrile], for which the melting point fell in the range of 54 to 60 °C. Further, in data set [1], the inhibition at 10 µM is 50 to 85%. Moreover, in data set [2], the inhibition at 10 µM is more than 85%. In addition, in data set [3], the inhibition at 10 µM was more than 85%.

For `CC(C)(C)c1ccc(S(=O)(=O)/C=C/C(N)=O)cc1` [Example 55, (E)-3-(4-tert-Butyl-benzenesulfonyl)-acrylamide], the melting point worked out at 151 °C. For the same molecule, the inhibition at 10 µM in data set [1] lay in the range of 10 to 50%. The inhibition at 10 µM in data set [4] was 10 to 50%. Also, in data set [2], the inhibition at 10 µM fell in the range of 50 to 85%. Also, in data set [3], the inhibition at 10 µM fell in the range of 10 to 50%.

On to `CC(C)(C(=O)NCc1ccccn1)c1ccc(S(=O)(=O)/C=C/C#N)cc1` [Example 7, 2-[4-((E)-2-Cyano-ethenesulfonyl)-phenyl]-N-pyridin-2-ylmethyl-isobutyramide], for which the inhibition at 10 µM was 10 to 50% in data set [1], less than 10% in data set [4], 10 to 50% in data set [2] and 10 to 50% in data set [3].

Regarding `CC(C)(C(=O)O)c1ccc(S(=O)(=O)/C=C/C#N)cc1` [Example 1, 2-[4-((E)-2-Cyano-ethenesulfonyl)-phenyl]-2-methyl-propionic acid], the inhibition at 10 µM in data set [1] is 10 to 50%; in data set [4] it was 10 to 50%; in data set [2], less than 10%; in data set [3], less than 10%.

As to `CC(C)(C(=O)NC1CCCCC1)c1ccc(S(=O)(=O)/C=C/C#N)cn1` [Example 86, 2-[5-((E)-2-Cyano-ethenesulfonyl)-pyridin-2-yl]-N-cyclohexyl-isobutyramide], the inhibition at 10 µM in data set [1] is 10 to 50%; in data set [4] it was more than 85%; in data set [2], 50 to 85%; in data set [3], 10 to 50%.

For the molecule `COc1cccc(NC(=O)COc2ccc(S(=O)(=O)/C=C/C#N)cc2C(C)(C)C)c1` [Example 65, 2-[2-tert-Butyl-4-((E)-2-cyano-ethenesulfonyl)-phenoxy]-N-(3-methoxy-phenyl)-acetamide], the inhibition at 10 µM in data set [1] was 50 to 85%; in data set [4], more than 85%; in data set [2], 50 to 85%; in data set [3], more than 85%.

On to `CC(C)(C(=O)NCc1ccc(Cl)cc1)c1ccc(S(=O)(=O)/C=C/C#N)cc1` [Example 14, N-(4-Chloro-benzyl)-2-[4-((E)-2-cyano-ethenesulfonyl)-phenyl]-isobutyramide], for which the inhibition at 10 µM was 50 to 85% in data set [1], 10 to 50% in data set [4], 50 to 85% in data set [2] and more than 85% in data set [3].

With `CN1CCN(C(=O)C(C)(C)c2ccc(S(=O)(=O)/C=C/C#N)cc2)CC1` [Example 9, (E)-3-{4-[1,1-Dimethyl-2-(4-methyl-piperazin-1-yl)-2-oxo-ethyl]-benzenesulfonyl}-acrylonitrile], the inhibition at 10 µM in data set [1], in data set [4], in data set [2] and in data set [3] was less than 10% in each case.

Regarding `C=C(c1ccccc1)S(=O)(=O)c1ccc(C(C)(C)C)cc1` [Example 58, 1-tert-Butyl-4-(1-phenyl-ethenesulfonyl)-benzene], the melting point was determined as 99 °C. Besides, the inhibition at 10 µM in data set [1] was 10 to 50%. Also, the inhibition at 10 µM in data set [4] lay within 10 to 50%. For the same molecule, the inhibition at 10 µM in data set [2] was in the range of 50 to 85%. Also, the inhibition at 10 µM in data set [3] is less than 10%.

As for `Cc1ccc2oc(C(C)(C)c3cccc(S(=O)(=O)/C=C/C#N)c3)nc2c1` [Example 66, (E)-3-{3-[1-Methyl-1-(5-methyl-benzoxazol-2-yl)-ethyl]-benzenesulfonyl}-acrylonitrile; compound with trifluoro-acetic acid], the inhibition at 10 µM in data set [1] was 50 to 85%; in data set [4], more than 85%; in data set [2], 50 to 85%; in data set [3], more than 85%.
